Data as given in patent US11878063B2, “Engineered ligands and uses thereof” (Children's Medical Center Corporation, priority 2019, dated 2024).

Assays:
[1] = target: T1, human PTHR1 (Homo sapiens, UniProt Q03431); test: β-arrestin2-YFP recruitment in HEK293 cells transiently transfected with human PTHR1 (microscopy); assay type: cell-based; settings: 30 nM PTH(1-34)-TMR; 100 nM conjugate or VHH; 30 min room temperature
T1 construct: expressed in transfected cells
T1 sequence (Q03431 27-593): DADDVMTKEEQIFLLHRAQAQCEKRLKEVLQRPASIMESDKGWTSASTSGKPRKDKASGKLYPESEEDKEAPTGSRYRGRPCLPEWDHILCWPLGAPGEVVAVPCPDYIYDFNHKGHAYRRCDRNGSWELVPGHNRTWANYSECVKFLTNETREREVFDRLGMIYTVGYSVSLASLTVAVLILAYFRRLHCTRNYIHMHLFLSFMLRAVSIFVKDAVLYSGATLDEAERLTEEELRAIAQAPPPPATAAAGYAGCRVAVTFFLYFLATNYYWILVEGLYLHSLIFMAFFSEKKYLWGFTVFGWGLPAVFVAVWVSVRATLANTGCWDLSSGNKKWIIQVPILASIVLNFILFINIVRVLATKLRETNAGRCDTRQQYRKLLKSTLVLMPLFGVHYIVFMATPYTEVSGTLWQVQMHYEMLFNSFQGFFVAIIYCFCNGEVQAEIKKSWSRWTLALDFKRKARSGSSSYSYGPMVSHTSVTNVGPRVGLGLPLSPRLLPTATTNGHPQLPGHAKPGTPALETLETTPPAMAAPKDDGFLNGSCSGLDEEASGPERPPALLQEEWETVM
Protocol: FIGS. 30A-30F: Assessment of β-arrestin recruitment. A HEK293-derived cell line stably expressing a β-arrestin2-YFP fusion^2 was transiently transfected with human PTHR1. […] (red) and the nuclei of all cells were counterstained with DAPI. […] Panels show the same field of view with signal for β-arrestin2-YFP. […] (FIG. 30E) The ligands or VHHs (and concentrations) applied to these cells are VHHPTHR (100 nM). (FIG. 30F) The ligands or VHHs (and concentrations) applied to these cells are Vehicle. Transfected cells were incubated with indicated ligands or VHHs at room temperature for 30 minutes. This solution was aspirated, and the cells were washed twice, fixed with paraformaldehyde, and imaged as described in methods. For each panel the bottom image corresponds to an expanded version of the inset marked by the rectangle in the top image.

[2] = system: PTHR1GFP; test: cAMP induction in HEK293 cells stably expressing PTHR1GFP; assay type: cell-based, human
Protocol: The GFP-PTHR1 fusion was stably expressed in cells that respond to receptor engagement by activation of a cAMP-sensitive version of luciferase. Exposure of these transfectants to PTH(1-11) yielded the expected dose-response curve with half maximal stimulation at ˜200 nM.
Measurement of cAMP response. These assays were performed as previously described^27. Briefly, HEK-293-derived cell lines that stably express the Glosensor cAMP reporter (Promega Corp.)^30 and PTHR1, a PTHR1 variant, or PTHR2 were seeded into white sided 96 well plates (50,000 cells/well) and grown to confluency. Confluent monolayers of cells were pre-incubated with CO2 independent medium containing D-luciferin (0.5 mM) at 37° C. until a stable baseline level of luminescence was established (20 min). Varying concentrations of ligands were then added, and the time course of luminescence response was recorded using BioTek plate reader. The maximal luminescence response (observed 12-16 min after ligand addition) was used to construct dose-response data sets (Table 4, FIGS. 22A to 22E).
Data calculations. Data were processed using Microsoft Excel and GraphPad Prism 6. Data from cAMP dose-response assays were analyzed using a sigmoidal dose-response model with variable slope. Data sets were statistically compared by using Student's t test (two-tailed) assuming unequal variances for the two sets.
While there is no structural information for any VHH bound to PTHR1, a mode of interaction was envisioned between the receptor and VHH-PTH conjugates like that depicted in FIG. 12—Panel c. The portion of PTHR1 encoded by exon 2 is not resolved in structural studies (FIG. 12—Panel d)^13, 14, 17, is not important for ligand binding^18, and in past work has been targeted as a site for receptor modification^18, 19. A construct was generated that encodes a PTHR1 variant in which a 14-residue fragment from exon 2 was replaced with a 14-mer epitope tag from the intracellular protein UBC6e (PTHR16E, FIG. 12—Panel d)^20. A receptor construct in which a pH-sensitive green fluorescent protein variant (GFP) was inserted into the portion of the receptor encoded by exon 2 (PTHR1GFP in FIGS. 17A to 17C)^19. Another version of PTHR1 in which yellow fluorescent protein (YFP) replaces the entire extracellular domain (PTHR1YFPΔECD, FIG. 12—Panel e)^21, was also used.

[3] = system: Mice (CD1 female); test: Calcemic response: blood ionized calcium in mice after subcutaneous injection; assay type: in vivo, mouse; settings: 35 nmol/kg subcutaneous
Protocol: Animal experiments and measurement of in vivo response. Mice (CD1 female, age 11 weeks) were treated in accordance with the ethical guidelines adopted by Massachusetts General Hospital. […] Peptides and conjugates were administered at doses that allowed for differentiation between compounds with differing levels of in vivo activity^27. Statistical analyses were performed assuming Gaussian distribution of data. Mice (n=4 per compound) were injected subcutaneously with vehicle (10 mM citric acid/150 mM NaCl/0.05% Tween-80, pH 5.0) or vehicle containing PTH or conjugate at a dose of 35 nmol/kg body weight. […] Blood was withdrawn just before injection (t=0) or at times thereafter. Tail vein blood was collected and immediately analyzed. Blood Ca^2+ concentration was measured with a Siemens RapidLab 348 Ca2+/pH analyzer.

CC[C@H](C)[C@H](NC(=O)[C@H](CCC(=O)O)NC(=O)[C@H](CO)NC(=O)[C@@H](NC(=O)[C@@H](N)CO)C(C)C)C(=O)N[C@@H](CCC(N)=O)C(=O)N[C@@H](CC(C)C)C(=O)N[C@@H](CCSC)C(=O)N[C@@H](Cc1cnc[nH]1)C(=O)N[C@@H](CC(N)=O)C(=O)N[C@@H](CC(C)C)C(=O)NCC(=O)N[C@@H](CCCCN)C(=O)N[C@@H](Cc1cnc[nH]1)C(=O)N[C@@H](CC(C)C)C(=O)N[C@@H](CC(N)=O)C(=O)N[C@@H](CO)C(=O)N[C@@H](CCSC)C(=O)N[C@@H](CCC(=O)O)C(=O)N[C@@H](CCCN=C(N)N)C(=O)N[C@H](C(=O)N[C@@H](CCC(=O)O)C(=O)N[C@@H](Cc1c[nH]c2ccccc12)C(=O)N[C@@H](CC(C)C)C(=O)N[C@@H](CCCN=C(N)N)C(=O)N[C@@H](CCCCN)C(=O)N[C@@H](CCCCN)C(=O)N[C@@H](CC(C)C)C(=O)N[C@@H](CCC(N)=O)C(=O)N[C@@H](CC(=O)O)C(=O)N[C@H](C(=O)N[C@@H](Cc1cnc[nH]1)C(=O)N[C@@H](CC(N)=O)C(=O)N[C@@H](Cc1ccccc1)C(=O)O)C(C)C)C(C)C [PTH(1-34)]
relocalization of YFP-tagged β-arrestin to puncta [1]: effectively stimulated
Max (normalized ± SD), hPTHR1GFP ([2]; maximal cAMP response, normalized): 1.00 ± 0.00
EC50 ([2]; mean ± SD, Inactive = response <5% of maximal, read-out: EC50, cAMP induction, hPTHR1GFP): 0.4 ± 0.8 nM
time of peak blood ionized calcium after injection [3]: 1 to 2 h
blood ionized calcium response ([3]; n=4): strong increase
